Tests used:
Format in all cases: functional, cell-based
[1] = biological target: T1, Solute carrier family 15 member 1 (Homo sapiens) (UniProt P46059); test: TP_TRANSPORTER: inhibition of Cefadroxil uptake (apical pH 5.5, Cefadroxil: 1000 uM, Loracarbef: 10000 uM) in Caco-2 cells; set-up: scale not given: the % may be the effect or the level left
T1 sequence (whole entry): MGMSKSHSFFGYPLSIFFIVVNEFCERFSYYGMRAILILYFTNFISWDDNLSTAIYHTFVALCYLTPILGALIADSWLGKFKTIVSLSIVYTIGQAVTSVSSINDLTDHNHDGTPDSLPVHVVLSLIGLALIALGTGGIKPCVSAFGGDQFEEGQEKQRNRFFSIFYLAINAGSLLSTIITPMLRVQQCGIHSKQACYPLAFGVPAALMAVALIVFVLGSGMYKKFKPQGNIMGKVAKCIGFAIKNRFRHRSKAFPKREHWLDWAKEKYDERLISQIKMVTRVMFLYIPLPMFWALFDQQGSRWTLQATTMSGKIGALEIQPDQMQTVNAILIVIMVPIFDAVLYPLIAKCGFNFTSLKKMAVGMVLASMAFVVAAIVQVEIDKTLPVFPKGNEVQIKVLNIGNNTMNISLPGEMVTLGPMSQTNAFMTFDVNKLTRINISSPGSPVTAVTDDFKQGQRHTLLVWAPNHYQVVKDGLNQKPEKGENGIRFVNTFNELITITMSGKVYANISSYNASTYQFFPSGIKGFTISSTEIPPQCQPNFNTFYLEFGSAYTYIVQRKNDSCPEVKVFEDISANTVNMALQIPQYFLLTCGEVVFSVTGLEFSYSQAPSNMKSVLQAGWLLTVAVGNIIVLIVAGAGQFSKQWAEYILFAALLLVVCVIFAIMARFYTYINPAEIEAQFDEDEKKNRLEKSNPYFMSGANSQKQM

[2] = biological target: T1, Solute carrier family 15 member 1 (Homo sapiens); test: TP_TRANSPORTER: inhibition of Cefadroxil uptake (apical pH 6.5, Cefadroxil: 1000 uM, Loracarbef: 10000 uM) in Caco-2 cells; set-up: scale not given: the % may be the effect or the level left
[3] = biological target: T2, Solute carrier family 15 member 1 (Homo sapiens, UniProt P46059); test: TP_TRANSPORTER: inhibition of Cefixim uptake in Caco-2 cells
T2 sequence (P46059 whole entry): T1 sequence (whole entry)

[4] = biological target: T1, Solute carrier family 15 member 1 (Homo sapiens); test: TP_TRANSPORTER: inhibition of Cefadroxil uptake (apical pH 6.5, Cefadroxil: 1000 uM, Amoxicillin: 10000 uM) in Caco-2 cells; set-up: scale not given: the % may be the effect or the level left
[5] = biological target: T1, Solute carrier family 15 member 1 (Homo sapiens); test: TP_TRANSPORTER: inhibition of Cefadroxil uptake (apical pH 5.5, Cefadroxil: 1000 uM, Amoxicillin: 10000 uM) in Caco-2 cells; set-up: scale not given: the % may be the effect or the level left
[6] = biological target: T2, Solute carrier family 15 member 1; test: TP_TRANSPORTER: inhibition of Cefadroxil uptake in Caco-2 cells

## N[C@@H](C(=O)N[C@@H]1C(=O)N2C(C(=O)O)=C(Cl)CC[C@H]12)c1ccccc1
[1]
  Activity: 72.6%
[2]
  Activity: 60.3%

## CC1=C(C(=O)O)N2C(=O)[C@@H](NC(=O)[C@H](N)c3ccc(O)cc3)[C@H]2SC1 [CEFADROXIL]
[3]
  Ki: 1450 µM

## CC1(C)S[C@@H]2[C@H](NC(=O)[C@H](N)c3ccc(O)cc3)C(=O)N2[C@H]1C(=O)O
[4]
  Activity: 62.9%
[5]
  Activity: 85.7%

## C=CC1=C(C(=O)O)N2C(=O)[C@@H](NC(=O)/C(=N\OCC(=O)O)c3csc(N)n3)[C@H]2SC1 [CEFIXIME]
[6]
  Ki: 1310 µM

— ChEMBL document CHEMBL2074467, “Transport characteristics of differently charged cephalosporin antibiotics in oocytes expressing the cloned intestinal peptide transporter PepT1 and in human intestinal Caco-2 cells” (J Pharmacol Exp Ther, 1996)
